According to patent publication US6482949B1, “Colormetric sensor compositions and methods” (priority 1999, dated 2002):

Experiments:
[1] = Anion binding constants (Ka) by fluorescence quenching / UV-vis absorbance titration, dihydrogen phosphate; conditions: dichloromethane; for Anion binding constant (Ka), H2PO4^−: 1 by fluorescence quenching, 10 by UV-vis absorbance titration at 341 nm, errors ± 10%, average of 2-4 trials
From the text: (§1) The conclusion that 1 binds fluoride anion in dichloromethane solution was further supported by mass spectrometric analyses and titration experiments made using UV-visible absorption and fluorescence emission methods (Tables 1 and 2). The latter studies, which provided Ka values (Tables 1 and 2), were complemented by molar ratio analyses (Job plots) with 1:1 binding stoichiometries observed in all cases.
(§2) Nonetheless, even with these control systems the addition of tetrabutylammonium salts of various anions (F^−, Cl^− and H2PO4^−), gave rise to results that were quite interesting. […] Such effects can be rationalized in terms of the electron withdrawing nature of the two carbonyl groups, which serve to pull the electrons from the pyrrole units and thus act to increase the acidity of the pyrrolic NH protons. As a result, hydrogen bonding interactions with F^− are favored. In the particular case of inorganic phosphate, we speculate that the two carbonyl groups may also be involved in binding, stabilizing the complex via ancillary hydrogen bonding interactions involving the two HOP-phosphate protons.

[2] = Colorimetric assay: visual color change in solution on addition of fluoride anion; conditions: in solution (dichloromethane), naked eye
From the text: as §2
Unfortunately, the fluorescence quantum yield of 10 is low.
Using 2,3-dipyrrol-2′yl-5,6dicyanopyrazine (preparation is described in Example 30) as a sensing compound, a vivid yellow-to-red color change in solution observed upon addition of fluoride ion verifies that the quinoxaline backbone is not essential for chemical sensing in this family of compounds. This is consistent with the theory that changes in orbital overlap between the pi systems of conjugated bridging unit and the pyrrole rings account for the sensitivity of the sensing elements to analyte species.
In order to understand more fully the above results, studies were performed to map out the mode of fluoride anion binding. Firstly, it was verified that two pyrrolic nitrogens are required to observe the anion-induced color change. Toward this end, the mono protected 2,3-dipyrrylquinoxaline 12 was prepared by reacting 0.8 equivalents of SEMCl with one equivalent of 2,3-dipyrrylquinoxaline.

[3] = Anion binding constants (Ka) by fluorescence quenching / UV-vis absorbance titration, fluoride; conditions: for Anion binding constant (Ka), F^−: 1 by fluorescence quenching (λex 412 nm), 10 by UV-vis absorbance titration at 341 nm, errors ± 10%, average of 2-4 trials; for affinity constant (Ka) for F^− binding, rounded: in dichloromethane
From the text: as §1, §2

[4] = Anion binding constants (Ka) by fluorescence quenching / UV-vis absorbance titration, chloride; conditions: dichloromethane; for Anion binding constant (Ka), Cl^−: 1 by fluorescence quenching, 10 by UV-vis absorbance titration at 341 nm, errors ± 10%, average of 2-4 trials
From the text: as §1, §2

Anion binding constant (Ka), H2PO4^− [1] [M⁻¹]	Anion binding constant (Ka), F^− ([3]; dichloromethane)	Anion binding constant (Ka), Cl^− [4] [M⁻¹]	affinity constant (Ka) for F^− binding, rounded [3]	Compound	fluoride anion-induced color change [2]	change in the absorbance or emission spectra on addition of H2PO4^− ([1]; tetrabutylammonium salt)	change in the absorbance or emission spectra on addition of F^− ([3]; dichloromethane, tetrabutylammonium salt)	change in the absorbance or emission spectra on addition of Cl^− ([4]; tetrabutylammonium salt)
80	118,000 M^−1	45	~10^5 M^−1	O=[N+]([O-])c1ccc2nc(-c3ccc[nH]3)c(-c3ccc[nH]3)nc2c1 [compound 7, 6-nitro-2,3-dipyrrylquinoxaline]	yellow to purple	–	–	–
–	–	–	–	c1ccc2nccnc2c1 [compound 11, quinoxaline, reference compound]	–	did not induce any significant change in the absorbance or emission spectra	did not induce any significant change in the absorbance or emission spectra	did not induce any significant change in the absorbance or emission spectra
55	117,000 M^−1	45	~10^5 M^−1	O=[N+]([O-])c1cc2nc(-c3ccc[nH]3)c(-c3ccc[nH]3)nc2cc1[N+](=O)[O-] [compound 3, 2,3-dipyrrol-2′-yl-6,7-dinitroquinoxaline]	–	–	–	–
<50	2,300 M^−1	<50	2000 M⁻¹	COc1cc2nc(-c3ccc[nH]3)c(-c3ccc[nH]3)nc2cc1OC [compound 2, 2,3-dipyrrol-2′-yl-6,7-dimethoxyquinoxaline]	hardly “works” at all	–	–	–
–	–	–	–	N#Cc1nc(-c2ccc[nH]2)c(-c2ccc[nH]2)nc1C#N [2,3-dipyrrol-2′yl-5,6dicyanopyrazine, 2,3-dipyrrol-2′yl-5,6-dicyanopyrazine]	yellow-to-red	–	–	–

Compound	Anion binding constant (Ka), H2PO4^− [1] [M⁻¹]	Anion binding constant (Ka), F^− ([3]; dichloromethane)	Anion binding constant (Ka), Cl^− [4] [M⁻¹]	affinity constant (Ka) for F^− binding, rounded [3]	fluoride anion-induced color change [2]	change in the absorbance or emission spectra on addition of H2PO4^− ([1]; tetrabutylammonium salt)	change in the absorbance or emission spectra on addition of F^− ([3]; dichloromethane, tetrabutylammonium salt)	change in the absorbance or emission spectra on addition of Cl^− ([4]; tetrabutylammonium salt)
C[Si](C)(C)CCOCn1cccc1-c1nc2ccccc2nc1-c1ccc[nH]1 [compound 12]	<50	2,300 M^−1	<50	–	no color change	–	–	–
c1c[nH]c(-c2nc3ccccc3nc2-c2ccc[nH]2)c1 [compound 1, 2,3-dipyrrylquinoxaline]	60	18,200 M^−1	50	20000 M⁻¹	yellow to orange	–	–	–
